How the values were obtained:
Format in all cases: cell-based
HAS-2 = HAS-2 mRNA expression in human keratinocytes (real time PCR); conditions: Keratinocyte, 24 h, untreated negative control = 100%, GAPDH reference, n = 4, read-out: HAS-2 expression amount
HAS-3 = HAS-3 mRNA expression in human keratinocytes (real time PCR); conditions: Keratinocyte, 24 h, untreated negative control = 100%, GAPDH reference, n = 4, read-out: HAS-3 expression amount
[1] = tested on: mouse melanoma cells [쥐의 멜라노마 세포(B-16 mouse melanoma cell)]; assay: Inhibition of melanin production in B-16 mouse melanoma cells; conditions: relative to control; for inhibition rate (melanin production): 3 days, absorbance at 400 nm per 10^6 cells, n = 3
[2] = tested on: sulfated glycosaminoglycan [황산화 글리코사미노글리칸], human fibroblast [인간 유래 섬유아세포]; assay: Sulfated glycosaminoglycan synthesis in human fibroblasts (Blyscan kit); conditions: 24 h; for sulfated glycosaminoglycan production amount: n = 4
[3] = tested on: collagen type I [콜라겐 타입 I], human fibroblast [인간 유래 섬유아세포]; assay: Collagen type I synthesis in human fibroblasts (PICP EIA kit); conditions: 48 h, n = 4

N[C@H]1C(O)O[C@H](CO)[C@@H](O)[C@@H]1O (stereo partly shown) [글루코사민, reference compound]
activity at 100 ppm (HAS-2; 100 ppm): 114% | activity at 100 ppm (HAS-3; 100 ppm): 125%

OC[C@H]1O[C@@H](Oc2ccc(O)cc2)[C@H](O)[C@@H](O)[C@@H]1O [알부틴, Arbutin, reference compound]
inhibition rate (melanin production) ([1]; 200 ㎍/ml): 31.3%

COc1cc2ccc(=O)oc2c(OC)c1O [이소프락시딘, Isofraxidin]
inhibition rate (melanin production) ([1]; 1 ㎍/ml): 29.1% | inhibition rate (melanin production) ([1]; 10 ㎍/ml): 34.9% | inhibition rate of melanin production (summary statement) ([1]; concentration not given): ≥ 25% | sulfated glycosaminoglycan production amount ([2]; 1 ㎍/ml): 0.50 ng/mL | sulfated glycosaminoglycan production amount ([2]; 10 ㎍/ml): 1.64 ng/mL | sulfated glycosaminoglycan production amount ([2]; 20 ㎍/ml): 2.98 ng/mL | activation at 20 µg/mL ([2]; Homo sapiens, Fibroblast, 20 ㎍/ml, relative to untreated control (0.46 ng/ml), n = 4, read-out: sulfated glycosaminoglycan production increase rate): 548% | collagen production amount ([3]; 10 ㎍/ml): 304 ng/mL | collagen production amount ([3]; 20 ㎍/ml): 370 ng/mL | activity at 1 ppm (HAS-2; 1 ppm): 122% | activity at 10 ppm (HAS-2; 10 ppm): 135% | activity at 1 ppm (HAS-3; 1 ppm): 126% | activity at 10 ppm (HAS-3; 10 ppm): 151%

Reference: patent KR20170075293A, “피부 개선용 조성물” (주식회사 엘지생활건강, priority 2015, dated 2017)
